Source: patent publication US20210100869A1, “COMPOSITIONS AND METHODS OF USING SAME FOR TREATING AMYOTROPHIC LATERAL SCLEROSIS (ALS)” (Immunity Pharma Ltd., priority 2018, published 2021)
Residues, ends and D or L forms follow the SMILES beside them.

Key:
ALS patients [1] = experiment: Open-label Phase 1/2a clinical trial, safety and tolerability (adverse events); assay type: in vivo, human; details: eight patients, IV daily, 1.7 mg/kg escalated to 3.2 mg/kg
Method: Dose-limiting Toxicity (DLT): DLT is defined as a ≥Grade 3 per subject which is IPL344 drug-related adverse event (using CTCAE Version v.4.03) occurring at any dosing, excluding: • Grade 3 adverse event of hypersensitivity (defined as sinus tachycardia, heavy breathing or rash along the veins or elsewhere) • A transient (resolving within 6 hours of onset) Grade 3 study drug-related adverse event.
Adverse events (AE)—The FDA defines an AE as “any untoward medical occurrence associated with the use of a drug in humans, whether or not considered drug related” (US Department of Health and Human Services, December 2012). Medical conditions present before first administration of IPL344 are considered pre-existing conditions and are documented as medical history. A new condition, event or the worsening of a pre-existing condition is considered an AE from the first dose of administration.
AEs are coded by CTCAE Version v4.03.
Safety Analysis: The Safety population is based on participants having received at least one dose of IPL-344 (exposed population), including participants prematurely withdrawn. AEs are classified by system-organ class and preferred term and then summarized by number and percentage of participants experiencing AEs. […] The IPL344 DLT and maximal tolerated dose (MTD) are assessed and presented. […]

ALS patients [2] = details: estimated moderate effect; cited from earlier work

CC(C)C[C@H](NC(=O)[C@@H]1CCCN1C(=O)[C@@H]1CCCN1C(=O)[C@@H](N)CC(C)C)C(=O)N1CCC[C@H]1C(=O)N[C@@H](Cc1ccc(O)cc1)C(=O)N1CCC[C@H]1C(=O)O [IPL344, LPPLPYP] (H-LPPLPYP-OH)
Safety and tolerability profile (ALS patients [1]; 28 days safety study): favorable safety and tolerability profile
Drug-related adverse events (ALS patients [1]): No drug-related adverse events

CC1=NN(c2ccccc2)C(=O)C1 [edaravone]
Extension in patient survival (ALS patients [2]): three months extension in patient survival
